In PMC11790949, “A multiplex method for rapidly identifying viral protease inhibitors” (Molecular Systems Biology, 2025):
Where “and” joins values, the source holds several entries; their conditions need not be identical. Equal values may be shown once.

What was measured:
SARS-CoV-2 3CL protease [1] = target: T1, SARS-CoV-2 3CL protease (Severe acute respiratory syndrome coronavirus 2, UniProt P0DTD1); test: Biochemical inhibition of peptide cleavage by purified SARS-CoV-2 3CL protease (fluorogenic)
SARS-CoV-2 3CL protease [2] = target: T1, SARS-CoV-2 3CL protease; test: Mass spectrometry (MALDI-TOF) analysis of protein-inhibitor complex; assay type: binding; conditions: 50 μM protease, 500 μM inhibitor, 1 h at 4 °C
Protocol: For MALDI-TOF MS analysis, 1 µL of the protein-inhibitor complex (3CL protease only and 3CL protease-CB6778425) was mixed with 9 µL of 10 mg/mL sinapinic acid in the matrix solution (70:30 water/acetonitrile, with 0.1% TFA). About 1.0 µL of the final mix was deposited onto the target carrier and allowed to air dry. MALDI spectra of the protein-inhibitor complex were compared with ligand-free 3CL protease to determine the mass shift. MALDI spectra were collected with the software flexControl, while MALDI data were analyzed by flexAnalysis.

[3] = read-out: SARS-CoV-2 3CL Inhibition (%)

Row | SMILES | IC50 (SARS-CoV-2 3CL protease [1]) [nM] | shift of IC50 upon pre-incubation with SARS-CoV-2 3CL (SARS-CoV-2 3CL protease [1]) | inhibition at 0.0976563 µM (SARS-CoV-2 3CL protease [1]; [3]) [%] | inhibition at 0.19382 µM (SARS-CoV-2 3CL protease [1]; [3]) | inhibition at 0.195313 µM (SARS-CoV-2 3CL protease [1]; [3]) [%] | inhibition at 0.390625 µM (SARS-CoV-2 3CL protease [1]; [3]) [%] | inhibition at 0.49485 µM (SARS-CoV-2 3CL protease [1]; [3]) [%] | inhibition at 0.78125 µM (SARS-CoV-2 3CL protease [1]; [3]) [%] | inhibition at 0.79588 µM (SARS-CoV-2 3CL protease [1]; [3]) [%] | inhibition at 1.09691 µM (SARS-CoV-2 3CL protease [1]; [3]) [%] | inhibition at 1.39794 µM (SARS-CoV-2 3CL protease [1]; [3]) [%] | inhibition at 1.69897 µM (SARS-CoV-2 3CL protease [1]; [3]) [%] | inhibition at 2 µM (SARS-CoV-2 3CL protease [1]; [3]) [%] | inhibition at 2.30103 µM (SARS-CoV-2 3CL protease [1]; [3]) [%] | mass shift in the protease-inhibitor complex (SARS-CoV-2 3CL protease [2]) | inhibition at 0.000762939 µM (SARS-CoV-2 3CL protease [1]; [3]) [%] | inhibition at 0.00152588 µM (SARS-CoV-2 3CL protease [1]; [3]) [%] | inhibition at 0.0244141 µM (SARS-CoV-2 3CL protease [1]; [3]) [%] | inhibition at 0.0488281 µM (SARS-CoV-2 3CL protease [1]; [3]) [%] | inhibition at […] (SARS-CoV-2 3CL protease [1]; [3]) [%]
1 | CCc1cc(=O)oc2cc(OC(=O)c3ccco3)ccc12 [CB6728297] | 245 | shifts to lower IC50s | 9.07 | 94.7% and 89.2% | 39.5 | 64.9 | 88.9 | 90.8 | 93.8 | 98.7 | 93.4 | 95.6 | 88.8 | 99.1 |  |  |  |  |  | 
2 | O=C(Oc1ccc2ccc(=O)oc2c1)c1cccs1 [CB6762077] | 1100 | shifts to lower IC50s |  | 71.8% |  | 12.9 | 77.7 | 30.2 | 75.9 | 90.1 | 88.9 | 94.3 | 112 |  |  |  |  |  |  | 
3 | O=C(Oc1ccc2ccc(=O)oc2c1)c1ccco1 [CB6778425] |  |  | 62.7 | 104% | 85.1 | 94.5 | 102 | 98.7 | 95 | 96.4 | 103 | 98 | 95 | 90.6 | ~ 95 Da | 0.215 | 4.28 | 19.7 | 39.2 | 11.4
